Structures are written as SMILES.

The subject of test [1] is bone resorption. As to the kind of experiment: Schenk model, in vivo bone resorption inhibition. On the set-up: species or system male Sprague Dawley rats. Particulars: subcutaneous injection, daily for 7 days, tibia metaphyseal trabecular bone content. On the procedure:
The compounds are evaluated for in vivo bone resorption inhibition and mineralization inhibition in an animal model system known in the field of bone metabolism as the Schenk Model. The general principles of this model system are disclosed in Shinoda et al., Calcif.
Preweaning 17-day-old (30 gms) male Sprague Dawley rats (Charles River Breeding Laboratories) are shipped with their mothers and placed in plastic cages with their mothers upon arrival. At 19 days of age, pups receiving Rat Chow and water ad libitum are randomly allocated into treatment or control groups comprising seven animals per group. On day 1 and again on day 7 all animals are given an intraperitoneal ("IP") injection of Calcein (1% solution in 0.9% saline solution; dosed at 0.2 ml/100 g body weight). On day 4 all animals are given an IP injection of tetracycline hydrochloride (1% solution in 0.9% saline solution; dosed at 0.2 ml/100 g body weight). These compounds label actively mineralizing bone and cartilage.
All solutions are prepared for subcutaneous injection in 0.9% normal saline and adjusted to pH 7.4 using NaOH and/or HCl. Dose solution calculation is made by considering the mass of powder (based on molecular weight, hydration) of the active material in mg/kg (body weight) that corresponds to mgP/kg. Concentrations are based on dosing 0.2 ml/100 g body weight. […] Compounds showing activity at 0.1 mg P/kg/day are then tested at logarithmic decrements down to 0.001 mg P/kg/day. Adjustments in dosage based on changes in body weight are made on a daily basis.
On day 8 after the start of dosing, all animals are sacrificed by IP overdose of pentabarbitol. Tibias are dissected free and placed in 70% ethyl alcohol. […] The tibia is sectioned longitudinally through the metaphyseal area. Specimens are stained on one surface with silver nitrate and mounted on microscope slides for evaluation with a Quantimet Image Analyzer (Cambridge Instruments, Inc.) using both incandescent and ultraviolet illumination. Metaphyseal trabecular bone content is measured in the region between the fluorescent label and the growth plate: expressed as percent of total area (bone + marrow). Epiphyseal growth plate width is obtained as the mean value of 10 equally-spaced measurements across the section.
Statistical evaluation of data is made using parametric and non-parametric analysis of variance and Wilcoxons rank sum test to determine a statistically significant effect compared to control animals.
The Schenk model provides data for in vivo bone resorption inhibition by the compounds.

Test [2] has as its system parathyroid hormone (PTH)-induced rise in serum total and ionized calcium levels. As to the kind of experiment: Thyroparathyroidectomized (TPTX) rat model, in vivo bone resorption inhibition potency. More on the design: species or system male Wistar rats. Conditions: subcutaneous injection, daily for 4 days, TPTX rats, PTH challenge; lowest dose that decreases the rise in serum calcium. The protocol: The compounds are evaluated for in vivo bone resportion inhibition potency by an animal model system known as the thyroparathyroidectomized (TPTX) rat model. The general principles of this model system are disclosed in Russell et al., Calcif. Tissue Research, 6, 183-196 (1970), and in Muhlbauer and Fleisch, Mineral Electrolyte Metab., 5, 296-303 (1981), the disclosures of which are incorporated herein by reference. The basic biochemical concept of the TPTX system is inhibition of the parathyroid hormone (PTH)-induced rise in serum total and ionized calcium levels by the respective bone active polyphosphonates.
Low calcium and low phosphorous diets used are prepared by Teklad^R Test Diets (Harlan Industries, Madison, Wisconsin 53711) in a pellet form of approximately 0.18% calcium and 0.22% phosphorous. The diets contain all the essential vitamins and minerals required for the rat, with the exception of calcium and phosphorous. The calcium and phosphorous levels of the pellets are verified analytically.
PTH is acquired as a powdered bovine extract (Sigma Chemical Co., P. O. Box 14508, St. Louis, Missouri, order #P-4410). PTH is prepared in 0.9% saline such that the final concentration is 100 µg PTH/ml, or approximately 200 U.S.P. units/ml. All solutions are filtered through a #4 Whatman Filter Paper and refiltered through a 0.45 µm Metricel ^R filter.
All solutions of compounds to be tested for bone resorption inhibition potency are prepared for subcutaneous injection in 0.9% normal saline and adjusted to pH 7.4 using NaOH and/or HCl. Dose solution calculation is made by considering the mass of powder (based on molecular weight, hydration) of the active material in mg/kg (body weight) that corresponds to mg P/kg. Concentrations are based on dosing 0.2 ml/100 grams of body weight. Typically, all compounds are administered at 0.01, 0.1, and 1.0 mg P/kg/day for 4 days in order to determine the lowest effective dose ("LED"). Where necessary the test is repeated, whereby the animals are administered with 0.5 LED in order to refine the determination of LED. Adjustments in dosage based on changes in body weight are made on a daily basis.
In this study 50 male Wistar rats weighing approximately 150-160 grams are thyroparathyroidectomized surgically by the breeder (Charles River Breeding Laboratories). All rats are double housed on arrival in suspended cages with Purina Laboratory Rodent Chow^R and tap water ad libitum. After acclimation to the laboratory environment for 3-5 days, the rats are placed on a low calcium, low phosphorous (.18%/.22%) diet (Teklad^R) and given 2% (W/V) calcium gluconate supplemented deionized water via water bottles.
On day three of low calcium diet, all rats are weighed. On day four, all rats are anesthetized with Ketaset^R (Ketamine Hydrochloride, 100 mg/ml, Bristol Myers), 0.10 ml/rat, and then bled from the retro-orbital venous plexus for serum total calcium analysis using Flame Atomic Absorption (FAA) or Nova 7+7 Automated Calcium Analyzer. All rats weighing less than 150 grams are eliminated from the study. Animals are then randomized statistically such that the mean total serum calcium for each group is the same. Only rats deemed hypocalcemic (total serum calcium ≦8.0 mg/dl) are placed in study groups comprising six animals per group.
Treatments with the various experimental compounds commence on day 6 and last through day 9 of the study. Dose solutions are prepared to be given at a constant rate of 0.2 ml/100 grams of body weight subcutaneously in the vental skin flap where the hind leg meets the torso. All rats are weighed and dosed daily. A 25 gauge 5/8" needle is used to administer drug, alternating right and left dose sites daily. On day 8, animals are changed to deionized, distilled water via water bottles. On day 9 all rats are fasted in the afternoon at approximately 4:0 P.M. On day 10 of study no treatment is given. […]

In test [3] the test system is bone resorption. As to the kind of experiment: Capsules given orally to a patient afflicted with osteoporosis (Example 6). Type of test: in vivo. Conditions: 25 mg P per capsule, orally twice daily for 6 months, patient of approximately 70 kilograms. The protocol:
Capsules are prepared by conventional methods, comprised as follows: […]

Test [4] concerns hypercalcemia of malignancy. As to the kind of experiment: Injectable solution in patients with hypercalcemia of malignancy (Example 8). Type of test: in vivo. Conditions: 0.07 mg P in 1.0 ml saline, pH 7.4, one injection daily for 4 days, patients of approximately 70 kilograms. On the procedure: Injectable solutions are prepared by conventional methods using 1.0 ml of physiological saline solution and 0.07 mg P of N-(2'-(3'-methyl)-piperidinylidene)-amino-methane diphosphonic acid, adjusted to pH = 7.4.

In a further test the test system is hamsters' incisors. Particulars: parenteral administration to hamsters; Landeck and Binus 1980; cited from earlier work.
In another test the test system is skeleton. Particulars: Technetium-99m labelled, bone scintigraphy; Unterspann 1976; cited from earlier work.
Test [5] concerns bone resorption. In words: Tablets given orally to a patient afflicted with Paget's disease (Example 7). Particulars: 25 mg P per tablet, orally twice daily for 6 months, patient of approximately 70 kilograms. Type of test: in vivo. On the procedure:
Tablets are prepared by conventional methods, formulated as follows: […]

`CC(O)(P(=O)(O)O)P(=O)(O)O` [EHDP, ethane-1-hydroxy-1,1-diphosphonic acid]: in the test with bone resorption [1], the “Lowest Effective (Antiresorptive) Dose - Schenk; Schenk LED” value (shortened to “Lowest Effective … Schenk LED”) stood at 1.0 mg/P/kg. Besides, in test [2], the “Lowest Effective (Antiresorptive) Dose-TPTX” value is given as 1.0 mg P/kg.
For `O=P(O)(O)C(CC1CCCCN1)P(=O)(O)O` (stereo not shown) [2-(2'-piperidinyl)-EDP, 2-(2'-piperidinyl)-ethane-1,1-diphosphonic acid], in the test on bone resorption [1], the “Lowest Effective … Schenk LED” value is 0.01 mg/P/kg. For the same compound, the “Lowest Effective (Antiresorptive) Dose-TPTX” value in test [2] is 0.01 mg P/kg. For the same compound, the “bone resorption in a patient afflicted with osteoporosis” value with bone resorption [3] is on record as “substantially reduce bone resorption”.
Consider `CC1CCCN=C1NC(P(=O)(O)O)P(=O)(O)O` (stereo not shown) [N-(2'-(3'-methyl)piperidinylidene)AMDP, N-(2'-(3'-methyl)-piperidinylidene)-amino-methane diphosphonic acid], for which the “Lowest Effective … Schenk LED” value in the test with bone resorption [1] stood at 0.001 mg/P/kg. The “Lowest Effective (Antiresorptive) Dose-TPTX” value in test [2] worked out at 0.001 mg P/kg. The “alleviation of hypercalcemia of malignancy” value in test [4] is “appreciable alleviation of hypercalcemia of malignancy”.
`O=P(O)(O)C(NC1=NCCCN1)P(=O)(O)O` [N-(2'-(1',3'-diazinylidene))AMDP, N-(2'-(1',3'-diazinylidene))-aminomethane diphosphonic acid]: in test [2], the “Lowest Effective (Antiresorptive) Dose-TPTX” value was found to be 0.001 mg P/kg.
As to `O=P(O)(O)C(N1CCCCC1)P(=O)(O)O` [N-piperidinyl-methane-diphosphonic acid], the “effect on the mineralization of the incisors” value in the test with hamsters' incisors is “Little or no effect on the mineralization of the incisors”. The “skeleton activity compared with EHDP” value with skeleton is reported as “less skeleton activity than EHDP”.
On to `O=P(O)(O)C(O)(CC1CCCCN1)P(=O)(O)O` (stereo not shown) [2-(2'-piperidinyl)-1-hydroxy-ethane-1,1-diphosphonic acid], for which the “bone resorption in a patient afflicted with Paget's disease” value in the test on bone resorption [5] is “substantially reduce bone resorption”.
Take `NCCC(O)(P(=O)(O)O)P(=O)(O)O` [APD, 3-amino propane-1-hydroxy-1,1-DP]: the “Lowest Effective … Schenk LED” value with bone resorption [1] amounted to 0.1 mg/P/kg. Further, the “Lowest Effective (Antiresorptive) Dose-TPTX” value in test [2] turned out to be 0.1 mg P/kg.
`O=P(O)(O)C(Cl)(Cl)P(=O)(O)O` [Cl₂MDP, dichloromethane DP]: in the test with bone resorption [1], the “Lowest Effective … Schenk LED” value is 1.0 mg/P/kg. Also, the “Lowest Effective (Antiresorptive) Dose-TPTX” value in test [2] is on record as 1.0 mg P/kg.
